From article PMC6744613 (ACS chemical neuroscience, 2018)
Changes are numbered by the printed parent chain. Read-outs that look alike come from different tables or passages of the source.

Key:
COX-1 [1] = target: T1, COX-1 (Macaca mulatta, UniProt F6S984); assay: COX-1 whole-blood enzymatic immunoassay; assay type: cell-based; conditions: read-out: IC50 COX-1 Monkey, mean ± SD (n = 3)
T1 sequence (F6S984 25-599): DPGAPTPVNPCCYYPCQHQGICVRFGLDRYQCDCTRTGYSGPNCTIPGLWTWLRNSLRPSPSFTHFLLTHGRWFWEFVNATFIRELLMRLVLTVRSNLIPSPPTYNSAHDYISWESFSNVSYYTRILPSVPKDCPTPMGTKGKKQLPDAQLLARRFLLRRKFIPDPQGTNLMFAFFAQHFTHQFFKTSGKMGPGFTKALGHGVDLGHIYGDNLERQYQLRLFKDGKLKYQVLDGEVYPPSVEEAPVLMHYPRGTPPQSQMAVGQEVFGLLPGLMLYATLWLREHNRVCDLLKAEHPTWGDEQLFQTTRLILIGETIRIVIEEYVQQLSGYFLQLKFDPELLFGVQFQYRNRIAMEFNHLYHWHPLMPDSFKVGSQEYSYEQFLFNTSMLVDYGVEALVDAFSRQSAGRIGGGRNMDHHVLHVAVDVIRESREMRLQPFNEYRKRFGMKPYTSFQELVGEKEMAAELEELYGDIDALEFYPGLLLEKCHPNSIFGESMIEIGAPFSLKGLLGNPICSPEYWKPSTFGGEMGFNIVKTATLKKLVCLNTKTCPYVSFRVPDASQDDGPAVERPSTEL

COX-2 [2] = target: T2, COX-2 (Macaca mulatta, UniProt F7BWZ9); assay: COX-2 whole-blood enzymatic immunoassay; assay type: cell-based; conditions: read-out: IC50 COX-2 Monkey, mean ± SD (n = 3)
T2 sequence (F7BWZ9 18-604): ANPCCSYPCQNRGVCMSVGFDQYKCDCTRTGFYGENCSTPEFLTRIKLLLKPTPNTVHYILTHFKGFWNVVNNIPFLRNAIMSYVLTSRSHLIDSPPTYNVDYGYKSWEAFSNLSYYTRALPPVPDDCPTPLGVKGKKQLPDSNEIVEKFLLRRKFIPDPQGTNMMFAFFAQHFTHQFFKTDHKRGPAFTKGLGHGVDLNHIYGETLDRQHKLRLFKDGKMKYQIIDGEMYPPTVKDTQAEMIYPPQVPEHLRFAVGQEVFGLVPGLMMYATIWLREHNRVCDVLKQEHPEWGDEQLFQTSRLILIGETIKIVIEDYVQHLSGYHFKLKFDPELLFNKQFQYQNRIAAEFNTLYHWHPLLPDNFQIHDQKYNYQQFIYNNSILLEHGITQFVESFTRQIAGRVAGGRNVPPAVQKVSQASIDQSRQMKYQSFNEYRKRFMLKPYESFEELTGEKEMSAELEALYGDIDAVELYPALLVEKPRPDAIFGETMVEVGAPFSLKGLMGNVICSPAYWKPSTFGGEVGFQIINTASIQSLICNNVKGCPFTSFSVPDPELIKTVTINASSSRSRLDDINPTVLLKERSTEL

human COX-1 = conditions: read-out: IC50 for human COX-1 (reported); human whole blood; cited from earlier work
COX-1 [3] = target: T3, COX-1 (Rattus norvegicus, UniProt Q63921); assay: COX-1 whole-blood enzymatic immunoassay; assay type: cell-based
T3 sequence (Q63921 27-602): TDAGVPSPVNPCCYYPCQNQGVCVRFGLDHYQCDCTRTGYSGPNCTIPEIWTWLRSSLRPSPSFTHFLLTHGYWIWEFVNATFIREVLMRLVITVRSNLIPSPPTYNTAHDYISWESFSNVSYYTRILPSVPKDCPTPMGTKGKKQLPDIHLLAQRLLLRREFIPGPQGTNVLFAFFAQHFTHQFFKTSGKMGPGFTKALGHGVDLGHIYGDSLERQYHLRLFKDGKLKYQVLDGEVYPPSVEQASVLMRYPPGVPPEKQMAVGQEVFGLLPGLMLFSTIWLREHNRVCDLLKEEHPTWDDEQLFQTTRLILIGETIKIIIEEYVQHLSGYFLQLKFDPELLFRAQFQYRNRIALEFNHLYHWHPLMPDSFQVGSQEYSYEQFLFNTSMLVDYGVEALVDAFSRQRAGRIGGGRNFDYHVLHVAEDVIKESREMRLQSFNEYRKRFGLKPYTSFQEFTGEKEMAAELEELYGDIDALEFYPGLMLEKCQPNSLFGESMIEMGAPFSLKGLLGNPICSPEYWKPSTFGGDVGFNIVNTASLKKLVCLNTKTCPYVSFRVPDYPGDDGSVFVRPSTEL

COX-1 [4] = target: COX-1 (Homo sapiens, UniProt P23219); assay: COX-1 whole-blood enzymatic immunoassay; assay type: cell-based
Chain of COX-1 (Homo sapiens, UniProt P23219) (P23219 24-599): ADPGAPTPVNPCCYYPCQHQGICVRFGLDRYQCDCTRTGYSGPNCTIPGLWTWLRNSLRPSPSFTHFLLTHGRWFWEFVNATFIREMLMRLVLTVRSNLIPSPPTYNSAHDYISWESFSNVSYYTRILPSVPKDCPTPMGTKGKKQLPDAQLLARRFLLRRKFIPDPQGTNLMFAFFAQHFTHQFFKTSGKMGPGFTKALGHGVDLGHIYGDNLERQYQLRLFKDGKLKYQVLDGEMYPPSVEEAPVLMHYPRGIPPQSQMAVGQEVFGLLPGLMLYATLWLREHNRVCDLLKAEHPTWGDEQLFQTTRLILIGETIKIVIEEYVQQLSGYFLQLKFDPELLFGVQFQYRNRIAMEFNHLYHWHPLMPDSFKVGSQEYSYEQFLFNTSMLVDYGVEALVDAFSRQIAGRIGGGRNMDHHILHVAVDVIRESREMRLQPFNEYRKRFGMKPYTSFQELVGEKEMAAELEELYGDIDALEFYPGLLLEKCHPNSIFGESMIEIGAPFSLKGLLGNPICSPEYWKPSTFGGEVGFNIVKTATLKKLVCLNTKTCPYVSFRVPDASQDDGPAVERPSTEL

COX-2 [5] = target: T4, COX-2 (Homo sapiens, UniProt P35354); assay: COX-2 whole-blood enzymatic immunoassay; assay type: cell-based
T4 sequence (P35354 18-604): T2 sequence (F7BWZ9 18-604) with Y7H, L49F, V101A, F150L, T163S, K191N, D208A, H211R, N363T, R570G

[6] = read-out: IC50 COX-1 Human, human whole blood, mean ± SD (n = 3)

| IC50 (COX-1 [1]) | IC50 (COX-2 [2]) | IC50 (COX-1 [3]) | IC50 (COX-1 [4]) | IC50 (COX-2 [5]) | IC50 (COX-1 [4]; [6]) | IC50 (COX-2 [5]; read-out: IC50 COX-2 Human, human whole blood, mean ± SD (n = 3)) | Structure (SMILES) | IC50 (human COX-1) |
| --- | --- | --- | --- | --- | --- | --- | --- | --- |
| 1 ± 0.3 nM | > 1000 nM | 15 nM | – | – | – | – | COc1ccc(-c2nc(OCC(F)(F)F)nn2-c2ccc(OC)cc2)cc1 [Inhibitor 20, 1,5-Bis(4-methoxyphenyl)-3-(2,2,2-trifluoroethoxy)-1H-1,2,4-triazole] | – |
| 3 ± 2.5 nM | – | – | – | – | 3 ± 0.06 nM | > 1000 nM | COc1ccc(-n2nc(OC)nc2-c2ccccc2)cc1 [Inhibitor 31, 3-Methoxy-1-(4-methoxyphenyl)-5-phenyl-1H-1,2,4-triazole] | – |
| 100 nM | – | – | 1.7 ± 0.6 nM | 100 ± 25 nM | – | – | COc1ccc(-n2nc(OCF)nc2-c2ccccc2)cc1 [Inhibitor 32, 3-(Fluoromethoxy)-1-(4-methoxyphenyl)-5-phenyl-1H-1,2,4-triazole] | – |

Second part, the compound before the results:

| Structure (SMILES) | IC50 (COX-1 [1]) | IC50 (COX-2 [2]) | IC50 (COX-1 [3]) | IC50 (COX-1 [4]) | IC50 (COX-2 [5]) | IC50 (COX-1 [4]; [6]) | IC50 (COX-2 [5]; read-out: IC50 COX-2 Human, human whole blood, mean ± SD (n = 3)) | IC50 (human COX-1) |
| --- | --- | --- | --- | --- | --- | --- | --- | --- |
| C[C@H](C(=O)O)c1cccc(C(=O)c2ccccc2)c1 [Inhibitor 4, (S)-ketoprofen, reference compound] | 40 ± 17 nM | 400 ± 113 nM | – | – | – | – | – | – |
| COc1ccc(-c2nc(OC)nn2-c2ccc(OC)cc2)cc1 [Inhibitor 5] | 4.6 ± 1.3 nM | > 1000 nM | – | – | – | – | – | 4.9 nM |
| COc1ccc(-n2nc(C(F)(F)F)nc2-c2ccc(F)nc2)cc1 [Inhibitor 24, 2-Fluoro-5-(1-(4-methoxyphenyl)-3-(trifluoromethyl)-1H-1,2,4-triazol-5-yl)pyridine] | 10 ± 3 nM | – | – | 2 ± 0.1 nM | > 1000 nM | – | – | – |
| COc1ccc(-c2nc(SCF)nn2-c2ccc(OC)cc2)cc1 [Inhibitor 26, 3-(Fluoromethylthio)-1,5-bis(4-methoxyphenyl)-1H-1,2,4-triazole] | 6.4 ± 0.8 nM | – | – | 5 ± 3.9 nM | > 1000 nM | – | – | – |
| COc1ccc(-c2nc([S+]([O-])CF)nn2-c2ccc(OC)cc2)cc1 (stereo not drawn) [Inhibitor 27, 3-(Fluoromethylsulfinyl)-1,5-bis(4-methoxyphenyl)-1H-1,2,4-triazole] | 5 ± 2 nM | 545 ± 102 nM | – | 3 ± 1.7 nM | > 1000 nM | – | – | – |
| COc1ccc(-c2nc(S(=O)(=O)CF)nn2-c2ccc(OC)cc2)cc1 [Inhibitor 28, 3-(Fluoromethylsulfonyl)-1,5-bis(4-methoxyphenyl)-1H-1,2,4-triazole] | 25 ± 3 nM | – | – | 3 ± 1.2 nM | > 1000 nM | – | – | – |
| COc1cc(NCc2cccs2)nc(-c2ccc(S(C)(=O)=O)cc2)n1 [Inhibitor 34, [2-(4-Methanesulfonylphenyl)-6-methoxypyrimidin-4-yl]thiophen-2-ylme-thylamine, reference compound] | > 1000 nM | 1 ± 0.5 nM | – | – | – | > 1000 nM | – | – |
